Measured values as given in patent EP4818171A1 (Apeiron Therapeutics (Hong Kong) Ltd., priority 2024, dated 2025).
Read-outs that look alike come from different tables or passages of the source.

What was measured:
[1] = system: HCT-116 MTAP(-/-)deleted cells; test: Inhibitory activity on proliferation of HCT-116 MTAP(-/-)deleted cells (Cell-Titer Glo); details: read-out: IC50 (nM) HCT-116 MTAP(-/-)deleted
Experimental: Only cells in the logarithmic growth phase could be used for the test. […] The cell concentration was adjusted, rendering that cells were inoculated into a 384-well plate at 40 µL per well and incubated overnight at 37°C and 5% carbon dioxide. 40 nL of the compound was added to each well to reach a final concentration of 0-10,000 nM (starting concentration 10,000 nM, 3-fold dilution, 10 points), and the cell plate with 0.1% DMSO content was incubated at 37°C and 5% carbon dioxide for 8 d. 40 µL of Cell-Titer Glo reagent was added to test cell viability.

[2] = system: LU99 MTAP overexpressing cells; test: Inhibitory activity on proliferation of LU99 MTAP overexpressing cells (Cell-Titer Glo); format: cell-based; details: 6 d incubation
Experimental: Materials and cells: LU99 MTAP overexpressing cell line was purchased from Kyinno Biotechnology (China); cell culture medium and fetal bovine serum were purchased from Thermo Fisher Scientific (USA); 384-well plates were purchased from PerkinElmer (USA); Cell-Titer Glo kits were purchased from Promega (USA).
Cell culture: LU99 MTAP overexpressing cells were cultured with medium containing 10% fetal bovine serum at 37°C in 5% carbon dioxide. Only cells in the logarithmic growth phase could be used for the test.
Test of inhibitory activity on cell proliferation: The Cell-Titer Glo kit was used to test the proliferation inhibitory activity of the compounds on LU99 MTAP overexpressing cells. The cell concentration was adjusted, rendering that cells were inoculated into a 384-well plate at 40 µL per well and incubated overnight at 37°C and 5% carbon dioxide. 40 nL of the compound was added to each well to reach a final concentration of 0-10,000 nM (starting concentration 10,000 nM, 2.5-fold dilution, 10 points), and the cell plate with 0.2% DMSO content was incubated at 37°C and 5% carbon dioxide for 6 d. 40 µL of Cell-Titer Glo reagent was added to test cell viability.

HCT-116 wild-type cells = test: Inhibitory activity on proliferation of HCT-116 wild-type cells (Cell-Titer Glo); format: cell-based; details: 8 d incubation
Experimental: Cell culture: HCT-116 wild-type cells were cultured with a RPMI-1640 medium containing 10% fetal bovine serum+1% penicillin-streptomycin at 37°C in 5% carbon dioxide. Only cells in the logarithmic growth phase could be used for the test.
Test of cell proliferation activity: Cell-Titer Glo kit was used to test the proliferation inhibitory activity of the compound on HCT-116 wild-type cells. The cell concentration was adjusted, rendering that cells were inoculated into a 384-well plate at 40 µL per well and incubated overnight at 37°C and 5% carbon dioxide. 40 nL of the compound was added to each well to reach a final concentration of 0-10,000 nM (starting concentration 10,000 nM, 2-fold dilution, 10 points), and the cell plate with 0.1% DMSO content was incubated at 37°C and 5% carbon dioxide for 8 d. 40 µL of Cell-Titer Glo reagent was added to test cell viability.

[3] = system: LU99 MTAP(-/-)deleted cells; test: Inhibitory activity on proliferation of LU99 MTAP(-/-)deleted cells (Cell-Titer Glo)
Experimental: Materials and cells: LU99 MTAP deleted cell line was purchased from Kyinno Biotechnology (China); cell culture medium and fetal bovine serum were purchased from Thermo Fisher Scientific (USA); 384-well plates were purchased from PerkinElmer (USA); Cell-Titer Glo kits were purchased from Promega (USA). Cell culture: LU99 MTAP(-/-)deleted cells were cultured with medium containing 10% fetal bovine serum at 37°C in 5% carbon dioxide. Only cells in the logarithmic growth phase could be used for the test.
Test of inhibitory activity on cell proliferation: The Cell-Titer Glo kit was used to test the proliferation inhibitory activity of the compounds on LU99 MTAP(-/-)deleted cells. The cell concentration was adjusted, rendering that cells were inoculated into a 384-well plate at 40 µL per well and incubated overnight at 37°C and 5% carbon dioxide. […] 40 µL of Cell-Titer Glo reagent was added to test cell viability.

[4] = read-out: IC50 (nM) Lu99 MTAP(-/-)Deleted, LU99 MTAP(-/-)deleted cells, 6 d incubation, Cell-Titer Glo
[5] = Homo sapiens, Lu-99, 144 h, read-out: IC50 (nM) Lu99 MTAP(-/-)Deleted, LU99 MTAP(-/-)deleted cells, 6 d incubation, Cell-Titer Glo

**Q.** Which IC50 ([1]; HCT-116 MTAP(-/-)deleted cells, 8 d incubation, Cell-Titer Glo) does the source give for “4-amino-N-methyl-N-(7'-(trifluoromethyl)spiro[cyclobutane-1,1'-isochroman]-4'-yl)imidazo[1,5-a]quinoxaline-8-carboxamide [Example 1]” here?
**A.** 10 nM

**Q.** And the IC50 [2]?
**A.** 652 nM

**Q.** And the IC50 (HCT-116 wild-type cells)?
**A.** 959 nM

**Q.** What about the IC50 [3, 4] of the same compound?
**A.** 13.2 nM

**Q.** Which results are given for `CN(C(=O)c1ccc2nc(N)c3cncn3c2c1)[C@H]1COC2(CCC2)c2cc(C(F)(F)F)ccc21` (stereo in doubt) [Example 4, (R)-4-amino-N-methyl-N-(7'-(trifluoromethyl)spiro[cyclobutane-1,1'-isochroman]-4'-yl)imidazo[1,5-a]quinoxaline-8-carboxamide]?
**A.** IC50 [2]: 742 nM; IC50 [3, 4]: 1100 nM

**Q.** Which results are given for `CN(C(=O)c1ccc2nc(N)c3cncn3c2c1)[C@H]1COC2(CCC2)c2cc(C(F)(F)F)ccc21` [Example 3, (R)-4-amino-N-methyl-N-(7'-(trifluoromethyl)spiro[cyclobutane-1,1'-isochroman]-4'-yl)imidazo[1,5-a]quinoxaline-8-carboxamide]?
**A.** IC50 ([1]; Homo sapiens, HCT-116, 192 h): 5.1 nM; IC50 ([2]; Homo sapiens, Lu-99, 144 h): 624 nM; IC50 (HCT-116 wild-type cells; Homo sapiens, HCT-116, 192 h): 636 nM; IC50 [3, 4]: 8.3 nM

**Q.** For `CN(C(=O)c1ccc2nc(N)c3cncn3c2c1)[C@@H]1COC2(CCC2)c2nc(N3CCOCC3)ccc21` [Example 5, (S)-4-amino-N-methyl-N-(2'-morpholinyl-5',6'-dihydrospiro[cyclobutane-1,8'-pyrano[3,4-b]pyridine]-5'-yl)imidazo[1,5-a]quinoxaline-8-carboxamide], which IC50 ([2]; Homo sapiens, Lu-99, 144 h) is on record?
**A.** 2360 nM

**Q.** And the IC50 [3, 5]?
**A.** 961 nM

**Q.** What does the source list for `CN(C(=O)c1ccc2nc(N)c3cncn3c2c1)C1COC2(CCC2)c2cc(C(F)(F)F)ccc21` (stereo not drawn) [Example 7, 4-Amino-N-methyl-N-(7'-(trifluoromethyl)spiro[cyclobutane-1,1'-isochroman]-4'-yl)imidazo[1,5-a]quinoxaline-8-carboxamide]?
**A.** IC50 ([1]; Homo sapiens, HCT-116, 192 h): 5.1 nM; IC50 ([2]; Homo sapiens, Lu-99, 144 h): 624 nM; IC50 (HCT-116 wild-type cells; Homo sapiens, HCT-116, 192 h): 636 nM; IC50 [3, 5]: 8.3 nM

**Q.** What does the source list for `CN(C(=O)c1ccc2nc(N)c3cncn3c2c1)C1COC2(CC2)c2cc(C(F)(F)F)ccc21` (stereo not drawn) [Example 8, 4-Amino-N-methyl-N-(7'-(trifluoromethyl)spiro[cyclopropane-1,1'-isochroman]-4'-yl)imidazo[1,5-a]quinoxaline-8-carboxamide]?
**A.** IC50 ([1]; Homo sapiens, HCT-116, 192 h): 9 nM; IC50 ([2]; Homo sapiens, Lu-99, 144 h): 2310 nM; IC50 (HCT-116 wild-type cells; Homo sapiens, HCT-116, 192 h): 3930 nM; IC50 [3, 5]: 13.4 nM

**Q.** Which IC50 ([2]; Homo sapiens, Lu-99, 144 h) does the source give for `CN(C(=O)c1cc2c(cc1F)nc(N)c1cncn12)[C@@H]1COC2(CCC2)c2cc(C(F)(F)F)ccc21` [Example 15, (S)-4-amino-7-fluoro-N-methyl-N-(7'-(trifluoromethyl)spiro[cyclobutane-1,1'-isochroman]-4'-yl)imidazo[1,5-a]quinoxaline-8-carboxamide] here?
**A.** 425 nM

**Q.** And the IC50 [3, 5]?
**A.** 7.1 nM

**Q.** How did the IC50 ([2]; Homo sapiens, Lu-99, 144 h) turn out when `CN(C(=O)c1ccc2nc(N)c3cncn3c2c1)C1COC(C)(C)c2c1ccc1c2OCO1` (stereo not drawn) [Example 18] was run?
**A.** 756 nM

**Q.** And the IC50 [3, 5]?
**A.** 99.6 nM

**Q.** For `CN(C(=O)c1ccc2nc(N)c3cncn3c2c1)C1COC2(CCCOC2)c2cc(C(F)(F)F)ccc21` (stereo not drawn) [Example 24, 4-Amino-N-methyl-N-(7-(trifluoromethyl)-5',6'-dihydro-2'H,4'H-spiro[isochroman-1,3'-pyran]-4-yl)imidazo[1,5-a]quinoxaline-8-carboxamide], which IC50 ([2]; Homo sapiens, Lu-99, 144 h) is on record?
**A.** 1470 nM

**Q.** And the IC50 [3, 5]?
**A.** 9.54 nM

**Q.** How did the IC50 ([2]; Homo sapiens, Lu-99, 144 h) turn out when `CN(C(=O)c1cc2c(cc1F)nc(N)c1cncn12)C1COC2(CCCOC2)c2cc(C(F)(F)F)ccc21` (stereo not drawn) [Example 50, 4-Amino-7-fluoro-N-methyl-N-(7-(trifluoromethyl)-5',6'-dihydro-2'H,4'H-spiro[isochroman-1,3'-pyran]-4-yl)imidazo[1,5-a]quinoxaline-8-carboxamide] was run?
**A.** 591 nM

**Q.** What about the IC50 [3, 5] of the same compound?
**A.** 7.13 nM

**Q.** For `CN(C(=O)c1ccc2nc(N)c3cncn3c2c1)C1COC(C)(C)c2cc(C(F)(F)F)ncc21` (stereo not drawn) [Example 99, 4-Amino-N-(1,1-dimethyl-7-(trifluoromethyl)-3,4-dihydro-1H-pyrano[4,3-c]pyridin-4-yl)-N-methylimidazo[1,5-a]quinoxaline-8-carboxamide], which IC50 ([2]; Homo sapiens, Lu-99, 144 h) is on record?
**A.** 2970 nM

**Q.** What about the IC50 [3, 5] of the same compound?
**A.** 152 nM
